From publication PMC6652808, “The Inhibitory Effect of GlmU Acetyltransferase Inhibitor TPSA on Mycobacterium tuberculosis May Be Affected Due to Its Methylation by Methyltransferase Rv0560c” (Frontiers in Cellular and Infection Microbiology, 2019)
Read-outs that look alike come from different tables or passages of the source.

Legend:
Experiment in all cases: biochemical
[1] = target: T1, GlmU (Mycobacterium tuberculosis, UniProt P9WMN3); design: Inhibition constants from double reciprocal plots, DTNB acetyltransferase assay with varied substrate
T1 sequence (P9WMN3 2-495): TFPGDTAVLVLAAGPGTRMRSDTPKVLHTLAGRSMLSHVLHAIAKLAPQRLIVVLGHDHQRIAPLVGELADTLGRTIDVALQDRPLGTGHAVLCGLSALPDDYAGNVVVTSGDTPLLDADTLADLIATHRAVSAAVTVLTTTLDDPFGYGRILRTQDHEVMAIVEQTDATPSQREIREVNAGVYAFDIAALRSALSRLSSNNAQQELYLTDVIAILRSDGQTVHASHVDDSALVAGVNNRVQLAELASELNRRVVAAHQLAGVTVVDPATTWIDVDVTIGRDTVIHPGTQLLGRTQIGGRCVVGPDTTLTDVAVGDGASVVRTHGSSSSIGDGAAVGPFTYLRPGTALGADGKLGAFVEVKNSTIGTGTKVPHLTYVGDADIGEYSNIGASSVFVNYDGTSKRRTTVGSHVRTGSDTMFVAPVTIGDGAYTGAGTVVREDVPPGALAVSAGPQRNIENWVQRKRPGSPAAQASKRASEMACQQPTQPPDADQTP

[2] = target: T1, GlmU; design: DTNB colorimetric assay of GlmU acetyltransferase activity, absorbance at 405 nm
[3] = target: T1, GlmU; design: Inhibition constants from double reciprocal plots, DTNB acetyltransferase assay with varied substrate; remark: listed apart in the source
[4] = target: T1, GlmU; design: Inhibition constants from double reciprocal plots, DTNB acetyltransferase assay with varied substrate; remark: listed apart in the source

Row | SMILES | Ki [1] | IC50 [2] | Ki [3] | Ki [4]
1 | O=C1C=CC(=O)N1c1cccc(N2C(=O)C=CC2=O)c1 [DHPP, 1-[3-(2,5-dioxo-2,5-dihydro-1H-pyrrol-1-yl)phenyl]-2,5-dihydro-1H-pyrrole-2,5-dione] | 26.3 µM | 10.3 µM | 26.4 µM | 
2 | O=c1oc2ccccc2c2c1Sc1ccccc1N2 [BCTZ, 6,12-dihydrobenzo[b]chromeno[4,3-e][1,4]thiazin-6-one] | 82.8 µM | 61.7 µM |  | 81.6 µM
3 | O=C1CC(=O)c2c1cccc2[N+](=O)[O-] [NID, 4-nitroindane-1,3-dione] |  | 124 µM |  | 
4 | Cc1ccc(C)n1-c1ccsc1C(=O)O [MPTC, 3-(2,5-dimethyl-1H-pyrrol-1-yl)thiophene-2-carboxylic acid] |  | 159 µM |  | 
5 | O=C1NC(=S)SC1=Cc1ccc(OCc2ccc([N+](=O)[O-])cc2)cc1 [NBTT, 5-{4-[(4-nitrobenzyl)oxy]benzylidene}-2-thioxo-1,3-thiazolan-4-one] | 41.3 µM | 65.1 µM | 40.2 µM | 
